Results reported in patent US12168020B2, “Method for ameliorating, preventing or treating muscular atrophy or sarcopenia by administering composition comprising 2′-fucosyllactose as active ingredient” (ADVANCED PROTEIN TECHNOLOGIES CORP., priority 2021, dated 2024).

Assays:
C57BL/6 mice [1] = assay: Dexamethasone-induced muscular atrophy mouse model: body weight and plasma liver function test; format: in vivo; conditions: dexamethasone 10 mg/kg i.p., vs Veh
Protocol: (§1) In order to determine whether or not 2′-FL has a prophylactic effect against muscular atrophy in an animal model, 2′-FL was orally administered at a concentration of 200 or 400 mg/kg to 7-week-old male C57BL/6 mice for 7 days, followed by intraperitoneal injection of dexamethasone known as a drug inducing muscular atrophy at a concentration of 10 mg/kg, and at the same time, oral administration of 2′-FL for 2 weeks. At this time, the experiment was conducted on mouse experimental groups, namely, a Nor group that received intraperitoneal injection of saline and distilled water, a that received intraperitoneal injection of Veh group dexamethasone and was orally administered distilled water, and a 2FLL group and a 2FLH group that received intraperitoneal injection of dexamethasone and was orally administered 2′-FL at 200 mg/kg and 400 mg/kg, respectively.

[2] = system: differentiated C2C12 treated with dexamethasone; assay: Protection against dexamethasone-induced growth inhibition (trypan blue cell count); format: cell-based, mouse; conditions: 2′-FL high concentration (200 μM) 1 hour before dexamethasone 400 μM for 24 hours, vs dexamethasone group (Veh)
Protocol: Dexamethasone, a synthetic glucocorticoid, is known to decrease the rate of protein synthesis and increase the rate of protein degradation in muscles in vivo or in cultured cells. Accordingly, 1 hour after treatment of C2C12, which had been differentiated, with 2′-FL, C2C12 was treated with dexamethasone at a concentration of 400 μM for 24 hours to determine the muscular atrophy prevention effect of 2′-FL in a cell model. In order to evaluate the prophylactic effect of growth inhibition caused by treatment with dexamethasone, C2C12 was treated with 2′-FL and dexamethasone in the same manner as above, the cells were removed with trypsin, and the number of the cells was counted using trypan blue staining.

C2C12 myotubes, MHC = assay: MHC expression analysis by immunocytochemical staining (myocyte differentiation); format: cell-based, mouse; conditions: C2C12, 2′-FL 100 and 200 μM, 24 hours, vs control group
Protocol: In order to differentiate mouse myoblasts into myotubes, the mouse myoblasts were seeded at a concentration of 4×10^5 cells/well in each well of a 6-well plate, cultured for 24 hours until confluence reached 100% and then 2% horse serum was added thereto. Then, the mouse myoblasts were differentiated for 6 days while exchanging the DMEM containing 2% horse serum with fresh DMEM every 2 days. Immunocytochemical staining was performed to determine the effect of treatment with 2′-FL on myocyte differentiation. Specifically, C2C12 was treated with 2′-FL at different concentrations (100 and 200 μM) for 24 hours, and then fixed with a 4% paraformaldehyde solution for 10 minutes. The fixed cells were washed with PBS containing 0.1% Triton X-100 and then reacted in 5% BSA solution for 1 hour. The cells were washed 3 times with 1×PBS again and then were allowed to react with an MHC antibody (Cell signaling) at room temperature overnight. After the reaction was completed, the cells were washed 3 times with PBS and reacted with Alexa Fluor 488 goat anti-rabbit IgG at room temperature for 1 hour, and then nuclei thereof were stained with a horchest solution and observed under a fluorescence microscope. At this time, the AMPK agonist A-769662 (1 μM) was used as a positive control.

[3] = system: C2C12, a mouse muscle (myoblast) cell line; assay: MTT assay, cytotoxicity of 2′-FL in C2C12; format: cell-based; conditions: C2C12, 2′-FL 100, 200, 400 μM, 24 hours, vs control group
Protocol: C2C12, a mouse muscle (myoblast) cell line, was cultured at 37° C. in the presence of 5% CO2 using a medium containing 90% DMEM, 10% FBS, and 10 unit/ml penicillin-streptomycin. In order to confirm the cytotoxicity of 2′-FL, the C2C12 cell line was seeded in each well of a 96-well plate at a concentration of 5×10^4 cells/well, cultured for 24 hours, and then treated with 2′-FL at various concentrations (100, 200, 400 μM) for 24 hours. Then, the medium was removed and a growth medium and 0.5 mg/ml of a diluted MTT solution were aliquoted in an amount of […] and incubated in a CO2 incubator. After 2 hours, the MTT reagent was removed, formazin was dissolved in DMSO (dimethyl sulfoxide), and absorbance was measured at 540 nm.

C57BL/6 mice [4] = assay: Dexamethasone-induced muscular atrophy mouse model: grip strength test; format: in vivo; conditions: 2′-FL 200 or 400 mg/kg oral, dexamethasone 10 mg/kg i.p., day before end of experiment, vs Veh
Protocol: as §1, with “respectively. All experimental animals were subjected to a grip strength test using a grip strength meter (Jeongdo Bio & Plant Co., Ltd.) the day before the end of the experiment.” for “respectively.”

[5] = system: differentiated C2C12, mitochondria; assay: Mitochondrial function: mtDNA expression and mitochondrial density (MitoTracker); format: cell-based, mouse; conditions: differentiated C2C12, 2′-FL 100 and 200 μM, 24 hours, vs control group
Protocol: Mitochondria have mitochondrial DNA (mtDNA) that is isolated from their own nuclear DNA. […] Such damage to mtDNA causes a decrease in mitochondrial function, leading to a decrease in synthesis of ATP, which is an energy molecule required for cellular a decrease in the ability to regulate activity, and homeostasis in vivo, which eventually causes the onset of various diseases. Accordingly, mtDNA expression and mitochondrial density upon treatment with 2′-FL were measured. […] C2C12 was treated with 2′-FL at different concentrations (100 and 200 μM) for 24 hours, was washed with PBS, added with a medium containing 200 nM of a MitoTracker green probe and cultured for 30 minutes. Then, the portion bound to the MitoTracker green probe was quantified with SpectraMax that absorbs a wavelength of 490 nm and emits a wavelength of 516 nm to measure the density of mitochondria. At this time, the AMPK agonist A-769662 (1 μM) was used as a positive control.

PGC-1α mRNA = assay: qPCR of mitochondrial biosynthesis gene PGC-1α; format: cell-based, mouse; conditions: C2C12, 2′-FL at a high concentration, vs control group
Description: (§2) Mitochondria are organelles that have a main function of generating ATP, which is a form of intracellular energy, and perform various intracellular functions such as metabolism, signal transduction, apoptosis, and differentiation. Metabolic adaptation in skeletal muscle is achieved by the regulation of various genes, and PGC-1α (peroxisome proliferator-activated receptor-γ coactivator-1α) transcriptional cofactor is known to perform the most important role therefor. Accordingly, the mRNA expression changes of PGC-1α and the downstream gene thereof, NRF2, were determined upon treatment with 2′-FL.
(§3) For this purpose, CDNA was synthesized from RNA extracted from C2C12 cells using ReverTra Ace qPCR RT Kit (TOYOBO). In order to increase the efficiency of the reaction, the RNA was pre-heated at 65° C. for 5 minutes and then immediately stored on ice. Then, a total of 8 μl of reagent was prepared from 2 μl of 4×DN master mix containing a gDNA remover, 0.5 μg of mRNA, and nuclease-free water, and then was amplified at 37° C. for 5 minutes.
(§4) The reacted reagent was added with a 5×RT master mix, and amplified at 37° C. for 15 minutes, at 50° C. for 5 minutes, and at 98° C. for 5 minutes to synthesize cDNA. Then, the synthesized cDNA was subjected to qPCR using Thunderbird TMSYBR qPCR mix reagent (TOYOBO). The gene expression level was analyzed with the iQ5 Cycler System (Bio-Rad). […]

[6] = system: differentiated C2C12 treated with dexamethasone, mitochondria; assay: Protection against dexamethasone-induced mitochondrial function inhibition; format: cell-based, mouse; conditions: 2′-FL 100 or 200 μM, dexamethasone 400 μM 24 hours, vs dexamethasone group
Protocol: Dexamethasone, a synthetic glucocorticoid, is known to decrease the rate of protein synthesis and increase the rate of protein degradation in muscles in vivo or in cultured cells. Accordingly, 1 hour after treatment of C2C12, which had been differentiated, with 2′-FL, C2C12 was treated with dexamethasone at a concentration of 400 μM for 24 hours to determine the muscular atrophy prevention effect of 2′-FL in a cell model. After treatment with dexamethasone, mtDNA expression and mitochondrial density were measured. […] In FIG. 6, 2FLL represents a group treated with 2′-FL at 100 μM, and 2FLH represent a group treated with 2′-FL at 200 μM.

NRF2 mRNA = assay: qPCR of mitochondrial biosynthesis gene NRF2; format: cell-based, mouse; conditions: C2C12, 2′-FL at a high concentration, vs control group
Description: as §2, §3, §4

atrogin-1 protein = assay: Dexamethasone-induced muscular atrophy mouse model: atrogin-1 immunoblotting of muscle tissue; format: in vivo; conditions: 2′-FL at a high concentration (400 mg/kg oral), dexamethasone 10 mg/kg i.p., vs Veh
Protocol: In order to determine whether or not 2′-FL has a prophylactic effect against muscular atrophy in an animal model, 2′-FL was orally administered at a concentration of 200 or 400 mg/kg to 7-week-old male C57BL/6 mice for 7 days, followed by intraperitoneal injection of dexamethasone known as a drug inducing muscular atrophy at a concentration of 10 mg/kg, and at the same time, oral administration of 2′-FL for 2 weeks. At this time, the experiment was conducted on mouse experimental groups, namely, a Nor group that received intraperitoneal injection of saline and distilled water, a that received intraperitoneal injection of Veh group dexamethasone and was orally administered distilled water, and a 2FLL group and a 2FLH group that received intraperitoneal injection of dexamethasone and was orally administered 2′-FL at 200 mg/kg and 400 mg/kg, respectively. Proteins were extracted by adding a Halt™ protease inhibitor to lysis buffer (10 mM Tris-HCl, pH 7.5, 1% NP-40, 0.1% sodium deoxycholate, 0.1% SDS, 150 mM NaCl, and 1 mM EDTA) in order to confirm protein expression using mouse muscle tissue and then immunoblotting was performed. As primary antibodies, anti-α-tubulin (1:1000) and anti-atrogin-1 (1:1000) were used. The resulting image of immunoblotting was analyzed using a ChemiDoc™ touch imaging system (Bio-Rad) and Image Lab 5.2 software (Bio-Rad).

[7] = system: C2C12 myotubes treated with dexamethasone; assay: Protection against dexamethasone-induced differentiation inhibition (myotube length and diameter); format: cell-based, mouse; conditions: 2′-FL high concentration (200 μM), dexamethasone 400 μM 24 hours, vs dexamethasone group (Veh)
Protocol: Dexamethasone, a synthetic glucocorticoid, is known to decrease the rate of protein synthesis and increase the rate of protein degradation in muscles in vivo or in cultured cells. Accordingly, 1 hour after treatment of C2C12, which had been differentiated, with 2′-FL, C2C12 was treated with dexamethasone at a concentration of 400 μM for 24 hours to determine the muscular atrophy prevention effect of 2′-FL in a cell model. Meanwhile, in order to evaluate the prophylactic effect of the differentiation inhibition caused by treatment with dexamethasone, the length and diameter of myotubes were measured after treatment with dexamethasone.

[8] = system: C57BL/6 mice, muscle tissue; assay: Dexamethasone-induced muscular atrophy mouse model: H&E muscle histology and muscle tissue weight; format: in vivo; conditions: 2FLH (2′-FL 400 mg/kg oral), dexamethasone 10 mg/kg i.p., vs Veh
Protocol: as §1, with “respectively. The mouse muscle tissue was stained using the H&E method and then histological morphology was observed.” for “respectively.”

MuRF1 gene = assay: qPCR of muscular atrophy gene MuRF1 after dexamethasone; format: cell-based, mouse; conditions: 2′-FL 100 or 200 μM, dexamethasone 400 μM 24 hours, vs dexamethasone group (Veh)
atrogin-1 gene = assay: qPCR of muscular atrophy gene atrogin-1 after dexamethasone; format: cell-based, mouse; conditions: 2′-FL 100 or 200 μM, dexamethasone 400 μM 24 hours, vs dexamethasone group (Veh)

## 2′-fucosyllactose [2′-FL]
C57BL/6 mice [1]; 2FLH (2′-FL 400 mg/kg oral), 3 weeks
  mouse weight: increased
C57BL/6 mice [1]; 2′-FL 200 or 400 mg/kg oral
  plasma GOT activity: lowered
  plasma GPT activity: lowered
[2]
  number of cells: significantly increased
C2C12 myotubes, MHC
  MHC expression: increased
  length and thickness of myotubes: increased
[3]
  cell viability: no difference in cell viability
C57BL/6 mice [4]
  grip strength: significantly increased
[5]
  mitochondrial density measured using the MitoTracker: increased in a concentration-dependent manner
  mtDNA expression: significantly increased in a concentration-dependent manner
PGC-1α mRNA
  expression of PGC-1α mRNA: significantly increased
[6]
  mitochondrial function (mtDNA expression and mitochondrial density): significantly increased
NRF2 mRNA
  expression of NRF2 mRNA: significantly increased
atrogin-1 protein
  expression of atrogin-1 protein in muscle tissue: significantly decreased
[7]
  diameter of myotubes: significantly increased
  length of myotubes: significantly increased
[8]
  muscular atrophy morphological characteristics (decreased muscle bundle size, imbalance in nuclear location), H&E: ameliorated
  weight of extensor digitorum longus: significantly increased
  weight of gastrocnemius muscle: significantly increased
  weight of muscle tissue (unspecified): significantly increased
MuRF1 gene
  MuRF1 gene expression: significantly decreased
atrogin-1 gene
  atrogin-1 gene expression: significantly decreased
